Data reported in PubChem BioAssay (NCI).
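1) Cells in 96-well plates. 2) Compound, 48 h, 5 concentrations. 3) Linear interpolation between surrounding doses. 4) Unreached endpoint = highest concentration. The concentration for 50% growth inhibition is given as GI50. The concentration for full growth arrest is given as TGI.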

Columns and labels:
Test in all cases: growth of human tumour cells (NCI), 48 h
[1] = tested on: SK-MEL-5 melanoma
[2] = tested on: SF-539 CNS
[3] = tested on: HL-60(TB) leukemia
[4] = tested on: HT29 colon
[5] = tested on: HCT-15 colon
[6] = tested on: SK-OV-3 ovarian
[7] = tested on: NCI-H226 lung
[8] = tested on: MALME-3M melanoma
[9] = tested on: U251 CNS
[10] = tested on: MCF7 breast

SMILES | GI50 [1] [µM] | TGI [1] [µM] | GI50 [2] [µM] | TGI [2] [µM] | GI50 [3] [µM] | TGI [3] [µM] | GI50 [4] [µM] | TGI [4] [µM] | GI50 [5] [µM] | TGI [5] [µM] | GI50 [6] [µM] | TGI [6] [µM] | GI50 [7] [µM] | TGI [7] [µM] | GI50 [8] [µM] | TGI [8] [µM] | GI50 [9] [µM] | TGI [9] [µM] | GI50 [10] [µM] | TGI [10] [µM]
C#CC[C@@H]1C[C@]2(C)[C@H]3CC[C@@H]4[C@H]5[C@H](C(=C)C)CC[C@]5(C(=O)O)CC[C@@]4(C)[C@]3(C)CC[C@H]2C(C)(C)[C@H]1O | 2.27 | 5.58 | 2.67 | 7.88 | 2.57 | > 100 | 1.93 | 3.69 | 1.89 | 6.61 | 2.39 | 5.25 | 2.05 | 6.56 | 2.53 | 5.83 | 1.57 | 3.03 | – | –
O=C(/C=C/c1ccccn1)c1ccccc1O | 3.95 | 14.1 | 2.05 | 4.2 | 2.15 | 6.15 | 2.23 | 4.84 | 2.35 | 6.68 | 5.54 | 17.9 | 2.18 | 6.23 | – | – | 2.02 | 5.78 | 2.47 | 10.4
CC1(C)CC[C@]2(C(=O)n3ccnc3)CC[C@]3(C)[C@H](C(=O)C=C4[C@@]5(C)C=C(C#N)C(=O)C(C)(C)[C@@H]5CC[C@]43C)[C@@H]2C1 | 0.0923 | 0.262 | < 0.0114 | < 0.0336 | – | – | < 0.0117 | – | < 0.01 | 0.0204 | 0.0347 | 0.317 | < 0.0178 | < 0.0499 | < 0.0111 | < 0.0188 | < 0.01 | 0.0281 | < 0.01 | > 100
O=C(CCc1nnc2s/c(=C\c3ccc4c(c3)OCO4)c(=O)n12)Nc1cc(Cl)ccc1Cl | – | > 100 | – | > 100 | – | > 100 | – | > 100 | – | > 56.6 | – | > 100 | – | > 100 | – | > 100 | – | > 100 | – | –
O=C(Nc1ccc(Cl)c(Cl)c1)C(=O)Nn1c(=S)[nH]c2ccccc2c1=O | – | > 100 | – | > 100 | – | > 100 | – | > 100 | – | > 100 | – | > 100 | – | > 100 | – | > 100 | – | > 100 | – | –
O=C1OC(c2ccccc2)C2CC3CC4(CCC3CN12)OCCO4 (stereo not given) | – | > 100 | – | > 100 | – | > 100 | – | > 100 | – | > 100 | – | > 100 | – | > 100 | – | – | – | > 100 | – | –
Cc1cc(Cl)ccc1NC(=O)/C(Cl)=C(/Cl)C(=O)O | – | > 100 | – | 50.9 | – | > 100 | – | 57.7 | – | 37.9 | – | > 100 | – | – | – | – | – | 38.3 | – | 50.5
O=C(c1ccccc1)c1ccc(Cl)c([N+](=O)[O-])c1 | 14.7 | 28.3 | 5.1 | 19 | 2.56 | 6.58 | 3.43 | 11.1 | 2.95 | 9.86 | 15.8 | 29.9 | 19.8 | 51.7 | – | – | 7.35 | 20.3 | 2.56 | 9.74
CN(C)c1ccc(/C=C/C(=O)c2ccccc2)cc1Br | – | 39.1 | – | – | – | – | – | 51 | – | 54.7 | – | > 100 | – | – | – | 43 | – | 33.6 | – | –
COc1ccc(S(=O)(=O)N2CCN(C(=O)OCc3ccccc3)CC2C(=O)NO)cc1 (stereo not given) | > 25 | > 25 | > 25 | > 25 | – | – | > 25 | > 25 | > 25 | > 25 | > 25 | > 25 | > 25 | > 25 | > 25 | > 25 | > 25 | > 25 | 13 | > 25
O=c1oc2c3ccc4ccccc4c3n(CCN3CCOCC3)c2c2ccccc12 | – | – | – | > 100 | – | > 100 | – | > 100 | – | – | – | > 100 | – | – | – | > 100 | – | – | – | –
O=C(CCCCC(=O)N/N=C\c1ccccc1Cl)N/N=C\c1ccccc1Cl | 3.94 | > 100 | 16.9 | > 100 | – | – | – | – | 3.08 | > 100 | – | – | 15.4 | > 100 | 9.26 | > 100 | 0.757 | 21 | 1.62 | > 100
COCC1C(=O)c2cc3c(cc2C12C=CC1(C=C2)OCCO1)OCO3 (stereo not given) | – | – | – | 29.3 | – | 5.97 | – | 15 | – | 2.96 | – | 29.7 | – | 22.8 | – | 27.4 | – | 14 | – | –
O=C(Nc1ccc(Cl)c(Cl)c1)C(=O)C(C1OC(=O)c2ccccc21)[N+](=O)[O-] (stereo not given) | – | > 100 | – | > 100 | – | – | – | > 100 | – | > 100 | – | > 100 | – | > 100 | – | > 100 | – | > 100 | – | > 100
O=c1c2cc(Br)ccc2[nH]c(=S)n1-c1ccc(Br)cc1 | – | – | – | > 100 | – | > 100 | – | > 100 | – | > 100 | – | – | – | > 100 | – | > 100 | – | > 100 | – | –
O=C(CC1(O)C(=O)Nc2c(Cl)cccc21)c1ccccc1 (stereo not given) | – | > 100 | – | – | – | > 100 | – | > 100 | – | > 100 | – | > 100 | – | > 100 | – | > 100 | – | > 100 | – | –
CN(C)CCCNC(=O)c1cc(NC(=O)CCNC(=O)c2ccc3c(c2)C(=O)c2ccccc2C3=O)cn1C | > 100 | > 100 | > 100 | > 100 | > 100 | > 100 | 79.8 | > 100 | – | – | > 100 | > 100 | > 100 | > 100 | – | – | 27.1 | > 100 | 20.1 | 56.4
COc1ccc(C(=O)C(c2ccc(OC)cc2)C2C(=O)Oc3ccccc32)cc1 (stereo not given) | > 100 | > 100 | > 100 | > 100 | – | – | > 100 | > 100 | > 100 | > 100 | > 100 | > 100 | > 100 | > 100 | > 100 | > 100 | – | – | – | –
